Molecules are shown by their SMILES. “And” between values parts separate entries of the source, which are not always exact repeats. Equal entries are not always repeated. Where two headings read alike, the source gives them in different places.

By IC50 is commonly meant the point on the concentration scale where inhibition reaches its midpoint.

Common to all, as to type: cell-based
Assay [1] concerns LoVo (human colon adenocarcinoma). Nature of the assay: Cytotoxicity test on sensitive tumour cell lines (sulforodamine B test). Conditions: 24 h incubation, survival after 48 h, ± S.D., read-out: antiproliferative activity IC50, Lovo. Here is the method:
(§1) This test was used to evaluate the survival of the human cell lines MCF-7 (human mammary carcinoma), LoVo (human colon adenocarcinoma), and MES-SA (human uterine sarcoma). The tumour cells were incubated with the compound, at scalar concentrations, (500 μM÷0.97 μM) for 24 hours; the compound was then removed and cell survival was evaluated after 48 hours using the sulforodamine B test (J. Natl. Cancer Inst. 82, 1107–1112). The antiproliferative activity of the compounds was evaluated in terms of the IC50 (concentration of the molecule that inhibits 50% of cell survival) processed with a curve-fitting program (Am. J. Physiol. 1978., 235, E97–E102) and expressed as μM±S.D.

In assay [2] the test system is MCF-7 (human mammary carcinoma). The assay is described as above. As to conditions: 24 h incubation, survival after 48 h, ± S.D., read-out: antiproliferative activity IC50, MCF-7. Here is the method:
as §1

The test system of assay [3] is MES-SA (human uterine sarcoma). Described as above. Conditions: 24 h incubation, survival after 48 h, ± S.D., read-out: antiproliferative activity IC50, Mes-Sa. Here is the method: as §1
In assay [4] the test system is NB4 cells (acute promyelocytic leukaemia). As to the kind of experiment: Flow cytofluorimetric analysis of cell cycle. Conditions: ATRA 0.01 μM alone, day 3. Further details: APOPTOSIS: unit not given here. Here is the method: The first line used was the NB4 cell line, bearing the t(15;17) chromosomal translocation which generates the fusion protein PML/RARα.
(§2) To assess the effect of the tested compounds on the various phases of the cell cycle, on the third day of treatment 500,000 cells were harvested, centrifuged at 1,000 rpm for 10 minutes, washed twice in PBS w/o (PBS without calcium and magnesium) and fixed in a solution of 50% PBS w/o+50% methanol/acetone (1:4 v/v) for at least 1 hour; the cells were then centrifuged as described, washed in PBS w/o and centrifuged again.
(§3) 200 μl of propidium iodide 100 μg/ml and 200 μl of RNase 150 kU/mg were then added to the cell pellet.
(§4) After a 30-min incubation in the dark at room temperature, the samples were analysed by flow cytofluirometry.

The test system of assay [5] is HL60 cells (acute promyelocytic leukaemia). Nature of the assay: Flow cytofluorimetric analysis of cell cycle. Conditions: ATRA 0.5 μM alone, day 3. Here is the method: The second line used was the HL60 cell line which responds to ATRA (but is less sensitive than the NB4 cell line).
The HL60 and NB4 cells were seeded at a density of 150,000 cells/ml in RPMI 1640 medium containing 10% foetal calf serum, and were treated with the tested compounds in the presence and absence of suboptimal doses of ATRA (5–10 nM for NB4 and 0.5 μM for HL60, respectively) in the dark, and returned to the incubator for 3 days without ever replacing the culture medium.
as §2, §3, §4

Assay [6] relates to LoVo-Dx (human colon adenocarcinoma). Nature of the assay: Cytotoxicity test on resistant tumour cell lines, tested compound alone. Conditions: 24 h incubation, survival after 48 h, ± SD. Here is the method: (§5) This test was used to evaluate the survival of human cell lines resistant to doxorubicin (about 100 times) and cross-resistant to daunorubicin, actinomycin D, mitoxantrone, vincristine, vinblastin, taxol, colchicine, and etoposide.
(§6) The following cell lines were used: MCF-7-Dx (human mammary carcinoma), LoVo-Dx (human colon adenocarcinoma), MES-SA Dx (human uterine sarcoma).
(§7) Before using the association doxorubicin-tested compound, the cytotoxicity of the cells was evaluated with the tested compound (alone) as follows: the cells were incubated with the compound, at scalar concentrations (500 μM÷0.97 μM), for 24 hours; the compound was then removed and cell survival was evaluated after 48 hours with the above-mentioned sulforodamine B test. The antiproliferative activity of the compounds was evaluated in terms of IC50 (concentration of the compound that inhibits 50% of cell survival) processed with the above-mentioned curve-fitting program.

Assay [7] deals with MCF-7-Dx (human mammary carcinoma). Described as above. Conditions: 24 h incubation, survival after 48 h, ± SD. Here is the method: as §5, §6, §7
Assay [8] concerns MES-SA Dx (human uterine sarcoma). The description is as above. As to conditions: 24 h incubation, survival after 48 h, ± SD. The method, then: as §5, §6, §7

Take `FCCCC[C@@H](c1cc2ccccc2[nH]1)c1c[nH]c2ccccc12` (racemic) [ST 1421, (R,S)-5-fluoro-1,1-(indol-2-ylindol-3-yl)-pentane]: the figures for the IC50 in assay [1] and in assay [2] were 20.7 ± 0.7 µM and 20.4 ± 2.8 µM, respectively.

As to `CCCC(c1cc2ccccc2[nH]1)c1c[nH]c2ccccc12` (racemic) [ST 1625, (R,S)-1,1-(indol-2-yl, indol-3-yl) butane], the IC50 in assay [1] was 17.1 ± 3.8 µM; in assay [2], 13.4 ± 1 µM; in assay [3], 14.1 ± 3.8 µM.

In the case of `OCCCC(c1cc2cc3c(cc2[nH]1)OCO3)c1c[nH]c2cc3c(cc12)OCO3` (racemic) [ST 1731, (R,S)-4-hydroxy-1,1-di-(5,6-methylenedioxy-indol-2-yl, 5,6-methylenedioxy-indol-3-Yl)-butane], the IC50 in assay [1] was found to be 23.9 ± 0.7 µM; in assay [2], 30.1 ± 4 µM.

`CC1=C(/C=C/C(C)=C/C=C/C(C)=C/C(=O)O)C(C)(C)CCC1` [ATRA, all-trans retinoic acid, reference compound]: in assay [4], the APOPTOSIS is 10 and 17.5 and 12.5; the G0/G1 was 54.6 and 65.0 and 55.8; the G2/M is 14.4 and 11.0 and 17.3; the S is 31.0 and 24.0 and 26.9. In addition, in assay [5], the G0/G1 is 63.3 and 63.4; the G2/M is on record as 11.0; the S is 25.7 and 25.6.

For the compound `CC1(C)OCC(C(O)C2OC(C)(C)OC2C(c2c[nH]c3ccccc23)c2c[nH]c3ccccc23)O1` [ST 1339, 2,3-5,6-di-O-isopropylidene-1,1-di-indol-3-yl-1-deoxy-D-mannitol], the IC50 turned out to be 11 ± 0.6 µM in assay [6], 98.2 ± 12 µM in assay [7] and 56.1 ± 11 µM in assay [8].

For the compound `OC[C@@H](O)[C@@H](O)[C@H](O)[C@@H](O)C(c1c[nH]c2ccccc12)c1c[nH]c2ccccc12` [ST 1350, 1,1-di-indol-3-yl-1-deoxy-D-glucose], the IC50 in assay [6] was above 500 µM; in assay [7], 70.8 ± 3.7 µM; in assay [8], 81.4 ± 8 µM.

`CC1(C)O[C@@H]([C@H](O)[C@H]2COC(C)(C)O2)[C@@H](C(c2c[nH]c3ncccc23)c2c[nH]c3ncccc23)O1` [ST 1353, 2,3-5,6-di-O-isopropylidene-1,1-di-7-azaindol-3-yl-1-deoxy-D-mannitol]: the IC50 was 367 ± 82 µM in assay [6] and above 500 µM in assay [7].

Consider `CC(=O)OC[C@@H](OC(C)=O)[C@@H](OC(C)=O)[C@H](OC(C)=O)[C@@H](OC(C)=O)C(c1c[nH]c2ccccc12)c1c[nH]c2ccccc12` [ST 1363, 1,1-di-indol-3-yl-1-deoxy-pentaacetyl-D-glucose], for which the IC50 in assay [1] stood at 31.3 ± 1.6 µM; in assay [2] it was 25 ± 2.8 µM; in assay [3], 33.6 ± 5.9 µM; in assay [6], 121 ± 12 µM; in assay [7], 65.4 ± 0.7 µM.

As for `CC(=O)OCCCCC(c1c[nH]c2ccccc12)c1c[nH]c2ccccc12` [ST 1371, 5-acetoxy-1,1-diindol-3-yl-pentane], the IC50 in assay [1] (Homo sapiens, LoVo) is 33 ± 3 µM; in assay [2] (Homo sapiens, MCF7), 27.7 ± 4.2 µM; in assay [6] (Homo sapiens, LoVo/DX), 47.9 ± 4.7 µM; in assay [7] (Homo sapiens, MCF7/DX) it was 74.1 ± 2.5 µM; in assay [8] (Homo sapiens, MES-SA Dx), 53 ± 0.4 µM.

Turning to `FCCCCC(c1c[nH]c2ccccc12)c1c[nH]c2ccccc12` [ST 1382, 1,1-(diindol-3-yl)-5-fluoro-pentane], the IC50 in assay [1] came to 33.5 ± 3.7 µM; in assay [2], 28.5 ± 6 µM; in assay [3], 40.2 ± 4.1 µM; in assay [6], 34.3 ± 6.9 µM; in assay [7], 40.2 ± 3 µM; in assay [8], 12.5 ± 0.3 µM.

`CCCC(c1c[nH]c2ccccc12)c1c[nH]c2ccccc12` [ST 1385, 1,1-di-indol-3-yl-butane]: the IC50 in assay [1] (Homo sapiens, LoVo) was determined as 26.4 ± 0.4 µM; in assay [2] (Homo sapiens, MCF7), 27 ± 3.2 µM; in assay [3] (Homo sapiens, MES-SA), 19.5 ± 4 µM; in assay [6] (Homo sapiens, LoVo/DX), 17.6 ± 0.9 µM; in assay [7] (Homo sapiens, MCF7/DX), 34.6 ± 2 µM; in assay [8] (Homo sapiens, MES-SA Dx), 33.6 ± 2.9 µM.

Turning to `CCCC(c1c[nH]c2ccc(O)cc12)c1c[nH]c2ccc(O)cc12` [ST 1393, 1,1-di-(5-hydroxyindol-3-yl)-butane], the IC50 in assay [1] (Homo sapiens, LoVo) is 3 ± 0.5 µM; in assay [2] (Homo sapiens, MCF7), 5.9 ± 0.8 µM; in assay [3] (Homo sapiens, MES-SA), 5.7 ± 0.1 µM; in assay [6] (Homo sapiens, LoVo/DX), 2.7 ± 0.4 µM; in assay [7] (Homo sapiens, MCF7/DX), 9.2 ± 0.4 µM; in assay [8] (Homo sapiens, MES-SA Dx), 7.5 ± 0.3 µM.

For `CCCC(c1c[nH]c2ccc([N+](=O)[O-])cc12)c1c[nH]c2ccc([N+](=O)[O-])cc12` [ST 1429, 1,1-di-(5 nitroindol-3-yl)-butane], the IC50 is 23.6 ± 0.5 µM in assay [1] (Homo sapiens, LoVo); 10.4 ± 0.3 µM in assay [2] (Homo sapiens, MCF7); 15 ± 2.5 µM in assay [3] (Homo sapiens, MES-SA); 10.2 ± 0.5 µM in assay [6] (Homo sapiens, LoVo/DX); 12.9 ± 0.7 µM in assay [7] (Homo sapiens, MCF7/DX); 15.3 ± 0.4 µM in assay [8] (Homo sapiens, MES-SA Dx).

Turning to `CCOC(=O)c1ccc(C(c2ccccc2)c2ccc(C(=O)OCC)[nH]2)[nH]1` [ST 1431, di-(5-ethoxycarbonyl-pyrrol-2-yl)-phenyl-methane], the IC50 in assay [1] (Homo sapiens, LoVo) amounted to 35.6 ± 0.5 µM; in assay [2] (Homo sapiens, MCF7) it was 20.3 ± 1.4 µM.

Turning to `CCCC(c1c[nH]c2ccc(N)cc12)c1c[nH]c2ccc(N)cc12` [ST 1437, 1,1-di-(5-amino-indol-3-yl)-butane. 2HCl], the IC50 in assay [1] was 16.7 ± 3.4 µM; in assay [2] it was 8.3 ± 1.2 µM; in assay [3], 4.4 ± 0.06 µM; in assay [6], 8 ± 0.6 µM; in assay [8] it was 12.2 ± 0.8 µM.

As to `CCCC(c1c[nH]c2ccc(F)cc12)c1c[nH]c2ccc(F)cc12` [ST 1438, 1,1-di-(5-fluoroindol-3-yl)-butane], the IC50 in assay [1] (Homo sapiens, LoVo) amounted to 20 ± 0.8 µM; in assay [2] (Homo sapiens, MCF7) it was 28.1 ± 0.9 µM; in assay [3] (Homo sapiens, MES-SA) it was 21.8 ± 4.4 µM; in assay [6] (Homo sapiens, LoVo/DX), 25.9 ± 3.1 µM; in assay [7] (Homo sapiens, MCF7/DX), 41.8 ± 5.3 µM; in assay [8] (Homo sapiens, MES-SA Dx), 35.6 ± 1.7 µM.

With `OC(c1ccccc1)(c1nccn1Cc1ccccc1)c1nccn1Cc1ccccc1` [ST 1440, phenyl, hydroxy, di-(N,N-dibenzyl-imidazol-2-yl) methane], the IC50 was determined as 11.7 ± 0.2 µM in assay [1]; 17 ± 2.9 µM in assay [2]; 4.7 ± 0.4 µM in assay [3]; 4.6 ± 0.6 µM in assay [6]; 29.7 ± 2.6 µM in assay [7]; 14.9 ± 2.5 µM in assay [8].

In the case of `O=C(c1cn(Cc2ccccc2)c2ccccc12)c1cn(Cc2ccccc2)c2ccccc12` [ST 1473, di-(N-benzyl-indol-3-yl)-oxomethane], the IC50 in assay [6] (Homo sapiens, LoVo/DX) was 8.6 ± 2.9 µM; in assay [7] (Homo sapiens, MCF7/DX) it was above 500 µM; in assay [8] (Homo sapiens, MES-SA Dx), above 500 µM.

For `CCCC(c1c[nH]c2ccc(NC(C)=O)cc12)c1c[nH]c2ccc(NC(C)=O)cc12` [ST 1477, 1,1-di-(5-acetamido-indol-3-yl)-butane], the IC50 came out at 59.4 ± 6.9 µM in assay [1] (Homo sapiens, LoVo); 33.1 ± 2.9 µM in assay [2] (Homo sapiens, MCF7); 28.7 ± 0.2 µM in assay [3] (Homo sapiens, MES-SA).

Take `CCC=C(c1cn(Cc2ccccc2)c2ccccc12)c1cn(Cc2ccccc2)c2ccccc12` [ST 1492, 1,1-di-(N-benzyl-indol-3-yl)-1-butene]: the IC50 in assay [6] (Homo sapiens, LoVo/DX) was above 350 µM; in assay [8] (Homo sapiens, MES-SA Dx) it was 178 ± 41 µM.

As to `CCCc1c(C(=O)c2cn(Cc3ccccc3)c3ccccc23)c2ccccc2n1Cc1ccccc1` [ST 1494, (N-benzyl-indol-3-yl, N-benzyl-2-propyl indol-3-yl)-oxomethane], the half-inhibitory concentration (IC50) in assay [6], in assay [7] and in assay [8] was above 200 µM throughout.

With `OCCCC(c1c[nH]c2cc3c(cc12)OCO3)c1c[nH]c2cc3c(cc12)OCO3` [ST 1730, 4-hydroxy-1,1-di-(5,6-methylenedioxy-indol-3-yl)-butane], the IC50 in assay [1] (Homo sapiens, LoVo) is 9.3 ± 0.9 µM; in assay [2] (Homo sapiens, MCF7) it was 24.5 ± 3.7 µM.
